# Reference: patent US20240287076A1, “COMPOUNDS FOR TARGETING DEGRADATION OF BRUTON'S TYROSINE KINASE” (BIOGEN MA INC., priority 2021, published 2024)
# Molecular target: T1, BTK (Homo sapiens, UniProt Q06187)
# T1 construct: The GM01501.3 cell line endogenously expresses BTK with a HiBiT fusion tag via CRISPR knock-in at its C-terminal region; endogenous in cells; host or cells: GM01501.3 (GM01501 cells engineered by CRISPR knock-in of HiBiT at the BTK locus)
# Assay: BTK degradation assay using the HiBiT Method (Nano-Glo HiBiT Lytic Assay, GM01501.3 cells)
# Assay type: cell-based
# Settings: HiBiT Degradation on GM01501.3 BTK @ 6 hours
# Summary of the method: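 Degradation read-out: HiBiT luminescence after lytic reagent addition, giving DC50. Compounds dosed from 10 μM in 11 half-log steps (duplicate) onto GM01501.3 cells, whose endogenous BTK carries a C-terminal HiBiT knock-in tag; 6 h exposure, 37 °C, 5% CO2.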
# T1 sequence (Q06187 whole entry, the tested form may be a part): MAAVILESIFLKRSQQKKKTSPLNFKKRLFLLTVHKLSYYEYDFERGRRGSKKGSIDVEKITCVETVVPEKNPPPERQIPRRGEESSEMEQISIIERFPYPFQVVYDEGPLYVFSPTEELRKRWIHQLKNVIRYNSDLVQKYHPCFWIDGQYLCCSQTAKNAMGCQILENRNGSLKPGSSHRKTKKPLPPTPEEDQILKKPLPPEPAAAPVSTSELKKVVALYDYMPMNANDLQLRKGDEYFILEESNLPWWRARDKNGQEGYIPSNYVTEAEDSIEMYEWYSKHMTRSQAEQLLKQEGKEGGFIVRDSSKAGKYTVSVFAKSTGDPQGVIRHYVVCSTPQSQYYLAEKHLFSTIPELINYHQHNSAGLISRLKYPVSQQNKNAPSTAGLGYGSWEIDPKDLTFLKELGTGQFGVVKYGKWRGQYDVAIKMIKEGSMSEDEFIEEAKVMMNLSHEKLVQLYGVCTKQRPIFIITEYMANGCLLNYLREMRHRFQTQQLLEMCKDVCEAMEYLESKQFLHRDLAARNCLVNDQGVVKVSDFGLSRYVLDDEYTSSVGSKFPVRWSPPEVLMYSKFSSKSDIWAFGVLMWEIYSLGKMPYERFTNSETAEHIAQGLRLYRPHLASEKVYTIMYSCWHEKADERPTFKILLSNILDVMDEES
row,Structure (SMILES),DC50
1,"Cc1cc(-c2ncnn3cc(-c4nc(CN5CCC(c6ccc(C7CCC(=O)NC7=O)cc6)CC5)co4)cc23)ccc1CNC(=O)c1noc(C(C)(C)C)n1 (stereo not drawn) [Example 219, 5-(tert-butyl)-N-(4-(6-(4-((4-(4-(2,6-dioxopiperidin-3-yl)phenyl)piperidin-1-yl)methyl)oxazol-2-yl)pyrrolo[2,1-f][1,2,4]triazin-4-yl)-2-methylbenzyl)-1,2,4-oxadiazole-3-carboxamide]",< 0.1 µM
2,"CC(C)(C)c1nc(C(=O)NCc2ccc(-c3ncnn4cc(CCCCN5CCC(c6ccc(C7(C)CCC(=O)NC7=O)cc6)CC5)cc34)cc2F)no1 (single isomer, unassigned) [Example 141, 5-tert-butyl-N-[[2-fluoro-4-[6-[4-[4-[4-(3-methyl-2,6-dioxo-3-piperidyl)phenyl]-1-piperidyl]butyl]pyrrolo[2,1-f][1,2,4]triazin-4-yl]phenyl]methyl]-1,2,4-oxadiazole-3-carboxamide]",< 0.1 µM
3,"Cc1cc(-c2ncnn3cc(-c4ccc(CCN5CCC(c6ccc(C7CCC(=O)NC7=O)cc6)C(F)(F)C5)cc4)cc23)ccc1CNC(=O)c1noc(C(C)(C)C)n1 (stereo not drawn) [Example 51, 5-tert-butyl-N-[[4-[6-[4-[2-[4-[4-(2,6-dioxo-3-piperidyl)phenyl]-3,3-difluoro-1-piperidyl]ethyl]phenyl]pyrrolo[2,1-f][1,2,4]triazin-4-yl]-2-methyl-phenyl]methyl]-1,2,4-oxadiazole-3-carboxamide]",< 0.1 µM
4,"Cc1cc(-c2ncnn3cc(-c4ccc(CN5CCC(c6ccc(NC7CCC(=O)NC7=O)nc6)CC5)cc4)cc23)ccc1CNC(=O)c1noc(C(C)(C)C)n1 (stereo not drawn) [Example 13, 5-tert-butyl-N-[[4-[6-[4-[[4-[6-[(2,6-dioxo-3-piperidyl)amino]-3-pyridyl]-1-piperidyl]methyl]phenyl]pyrrolo[2,1-f][1,2,4]triazin-4-yl]-2-methyl-phenyl]methyl]-1,2,4-oxadiazole-3-carboxamide]",< 0.1 µM
5,"Cc1cc(-c2ncnn3cc(CC[C@@H](F)CN4CCC(c5ccc(C6CCC(=O)NC6=O)cc5)CC4)cc23)ccc1CNC(=O)c1noc(C(C)(C)C)n1 (single isomer, unassigned) [Example 286]",< 0.1 µM
6,"Cc1cc(-c2ncnn3cc(-c4ccc(CN5CCC(c6ccc(NC7CCC(=O)NC7=O)cc6)CC5)cc4)cc23)ccc1CNC(=O)N1CC(OC(C)(C)C)C1 (stereo not drawn) [Example 97, 3-tert-butoxy-N-[[4-[6-[4-[[4-[4-[(2,6-dioxo-3-piperidyl)amino]phenyl]-1-piperidyl]methyl]phenyl]pyrrolo[2,1-f][1,2,4]triazin-4-yl]-2-methyl-phenyl]methyl]azetidine-1-carboxamide]",< 0.1 µM
7,"Cc1cc(-c2ncnn3cc(-c4ccc(CN5CCC(c6c(F)cc(C7CCC(=O)NC7=O)cc6F)CC5)cc4)cc23)ccc1CNC(=O)c1noc(C(C)(C)C)n1 (stereo not drawn) [Example 10, 5-tert-butyl-N-[[4-[6-[4-[[4-[4-(2,6-dioxo-3-piperidyl)-2,6-difluoro-phenyl]-1-piperidyl]methyl]phenyl]pyrrolo[2,1-f][1,2,4]triazin-4-yl]-2-methyl-phenyl]methyl]-1,2,4-oxadiazole-3-carboxamide]",< 0.1 µM
8,"Cc1cc(-c2ncnn3cc(N4CCN(C(=O)C5CCN(C(=O)c6ccc(OC7CCC(=O)NC7=O)cc6)C56CCC6)CC4)cc23)ccc1CNC(=O)c1noc(C(C)(C)C)n1 (stereo not drawn) [Example 191, 5-(tert-butyl)-N-(4-(6-(4-(5-(4-((2,6-dioxopiperidin-3-yl)oxy)benzoyl)-5-azaspiro[3.4]octane-8-carbonyl)piperazin-1-yl)pyrrolo[2,1-f][1,2,4]triazin-4-yl)-2-methylbenzyl)-1,2,4-oxadiazole-3-carboxamide]",< 0.1 µM
9,"Cc1cc(-c2ccnc3sc(CCCCN4CCC(c5ccc(NC6CCC(=O)NC6=O)cc5)CC4)cc23)ccc1CNC(=O)c1noc(C(C)(C)C)n1 (stereo not drawn) [Example 158, 5-tert-butyl-N-[[4-[2-[4-[4-[4-[(2,6-dioxo-3-piperidyl)amino]phenyl]-1-piperidyl]butyl]thieno[2,3-b]pyridin-4-yl]-2-methyl-phenyl]methyl]-1,2,4-oxadiazole-3-carboxamide]",0.1 to 0.5 µM
10,"Cc1cc(-c2ncnn3cc(-c4ccc(CN5CCC(c6ccc(NC7CCC(=O)NC7=O)cc6)CC5)cc4)cc23)ccc1CN1CCN(CC(C)(C)C)CC1=O (stereo not drawn) [Example 103, 3-[4-[1-[[4-[4-[4-[[4-(2,2-dimethylpropyl)-2-oxo-piperazin-1-yl]methyl]-3-methyl-phenyl]pyrrolo[2,1-f][1,2,4]triazin-6-yl]phenyl]methyl]-4-piperidyl]anilino]piperidine-2,6-dione]",< 0.1 µM
11,"Cc1cc(-c2ncnn3cc(CCCCN4CCC(c5ccc6c(N7CCC(=O)NC7=O)nn(C)c6c5F)CC4)cc23)ccc1CNC(=O)c1noc(C(C)(C)C)n1 [Example 278, 5-(tert-butyl)-N-(4-(6-(4-(4-(3-(2,4-dioxotetrahydropyrimidin-1(2H)-yl)-7-fluoro-1-methyl-1H-indazol-6-yl)piperidin-1-yl)butyl)pyrrolo[2,1-f][1,2,4]triazin-4-yl)-2-methylbenzyl)-1,2,4-oxadiazole-3-carboxamide]",< 0.1 µM
12,"Cc1cc(-c2ncnn3cc(-c4ccc5c(c4)CN(CCc4ccc(NC6CCC(=O)NC6=O)cc4)C5)cc23)ccc1CNC(=O)c1noc(C(C)(C)C)n1 (stereo not drawn) [Example 55, 5-tert-butyl-N-[[4-[6-[2-[2-[4-[(2,6-dioxo-3-piperidyl)amino]phenyl]ethyl]isoindolin-5-yl]pyrrolo[2,1-f][1,2,4]triazin-4-yl]-2-methyl-phenyl]methyl]-1,2,4-oxadiazole-3-carboxamide]",< 0.1 µM
13,"Cc1cc(-c2ncnn3cc(N4CCN(C(=O)C5CCN(C(=O)c6ccc(OC7CCC(=O)NC7=O)cc6)C5)CC4)cc23)ccc1CNC(=O)c1noc(C(C)(C)C)n1 (stereo not drawn) [Example 172, 5-(tert-butyl)-N-(4-(6-(4-(1-(4-((2,6-dioxopiperidin-3-yl)oxy)benzoyl)pyrrolidine-3-carbonyl)piperazin-1-yl)pyrrolo[2,1-f][1,2,4]triazin-4-yl)-2-methylbenzyl)-1,2,4-oxadiazole-3-carboxamide]",0.1 to 0.5 µM
14,"Cc1cc(-c2ncnn3cc(-c4cn(C)c(CN5CCC(c6ccc(C7CCC(=O)NC7=O)cc6)CC5)n4)cc23)ccc1CNC(=O)c1noc(C(C)(C)C)n1 (stereo not drawn) [Example 209, 5-(tert-butyl)-N-(4-(6-(2-((4-(4-(2,6-dioxopiperidin-3-yl)phenyl)piperidin-1-yl)methyl)-1-methyl-1H-imidazol-4-yl)pyrrolo[2,1-f][1,2,4]triazin-4-yl)-2-methylbenzyl)-1,2,4-oxadiazole-3-carboxamide]",< 0.1 µM
15,"CC(C)(C)c1nc(C(=O)NCc2ccc(-c3ncnn4cc(CCC(F)(F)CN5CCC(c6ccc(C7CCC(=O)NC7=O)cc6)CC5)cc34)cc2F)no1 (stereo not drawn) [Example 169, 5-tert-butyl-N-[[4-[6-[4-[4-[4-(2,6-dioxo-3-piperidyl)phenyl]-1-piperidyl]-3,3-difluoro-butyl]pyrrolo[2,1-f][1,2,4]triazin-4-yl]-2-fluoro-phenyl]methyl]-1,2,4-oxadiazole-3-carboxamide]",0.1 to 0.5 µM
16,"Cc1cc(-c2ncnn3cc(OC4CC(CN5CCC(c6ccc7c(N8CCC(=O)NC8=O)nn(C)c7c6)CC5)C4)cc23)ccc1CNC(=O)c1noc(C(C)(C)C)n1 (stereo not drawn) [Example 289, 5-(tert-butyl)-N-(4-(6-(3-((4-(3-(2,4-dioxotetrahydropyrimidin-1(2H)-yl)-1-methyl-1H-indazol-6-yl)piperidin-1-yl)methyl)cyclobutoxy)pyrrolo[2,1-f][1,2,4]triazin-4-yl)-2-methylbenzyl)-1,2,4-oxadiazole-3-carboxamide]",< 0.1 µM
17,"COc1ccc(C(=O)NCc2ccc(-c3ncnn4cc(-c5ccc(CN6CCC(c7ccc(NC8CCC(=O)NC8=O)cc7)CC6)cc5)cc34)cc2C)nc1 (stereo not drawn) [Example 93, N-[[4-[6-[4-[[4-[4-[(2,6-dioxo-3-piperidyl)amino]phenyl]-1-piperidyl]methyl]phenyl]pyrrolo[2,1-f][1,2,4]triazin-4-yl]-2-methyl-phenyl]methyl]-5-methoxy-pyridine-2-carboxamide]",< 0.1 µM
18,"Cc1cc(-c2ncnn3cc(CCN4CCC(c5ccc6c(C7CCC(=O)NC7=O)nn(C)c6c5)CC4)cc23)ccc1CNC(=O)c1noc(C(C)(C)C)n1 (stereo not drawn) [Example 255, 5-(tert-butyl)-N-(4-(6-(2-(4-(3-(2,6-dioxopiperidin-3-yl)-1-methyl-1H-indazol-6-yl)piperidin-1-yl)ethyl)pyrrolo[2,1-f][1,2,4]triazin-4-yl)-2-methylbenzyl)-1,2,4-oxadiazole-3-carboxamide]",< 0.1 µM
19,"CC1c2cc(OC3CCC(=O)NC3=O)ccc2CCN1Cc1ccc(-c2cc3c(-c4ccc(CNC(=O)c5noc(C(C)(C)C)n5)c(F)c4)ncnn3c2)nc1 (stereo not drawn) [Example 232, 5-(tert-butyl)-N-(4-(6-(5-((7-((2,6-dioxopiperidin-3-yl)oxy)-1-methyl-3,4-dihydroisoquinolin-2(1H)-yl)methyl)pyridin-2-yl)pyrrolo[2,1-f][1,2,4]triazin-4-yl)-2-fluorobenzyl)-1,2,4-oxadiazole-3-carboxamide]",0.1 to 0.5 µM
20,"Cc1cc(-c2ncnn3cc(-c4ccc(CN5CCC(c6ccc7c(N8CCC(=O)NC8=O)nn(C)c7c6)CC5)cc4F)cc23)ccc1CNC(=O)c1noc(C(C)(C)C)n1 [Example 246, 5-(tert-butyl)-N-(4-(6-(4-((4-(3-(2,4-dioxotetrahydropyrimidin-1(2H)-yl)-1-methyl-1H-indazol-6-yl)piperidin-1-yl)methyl)-2-fluorophenyl)pyrrolo[2,1-f][1,2,4]triazin-4-yl)-2-methylbenzyl)-1,2,4-oxadiazole-3-carboxamide]",< 0.1 µM
21,"Cc1cc(-c2ncnn3cc(-c4ccc(CN5CCC(c6ccc(NC7CCC(=O)NC7=O)cc6)CC5)cc4)cc23)ccc1CNC(=O)CCCC(C)(C)C (stereo not drawn) [Example 74, N-[[4-[6-[4-[[4-[4-[(2,6-dioxo-3-piperidyl)amino]phenyl]-1-piperidyl]methyl]phenyl]pyrrolo[2,1-f][1,2,4]triazin-4-yl]-2-methyl-phenyl]methyl]-5,5-dimethyl-hexanamide]",< 0.1 µM
